Here are results for 5 molecules from patent publication US5008290A, “Sulphonamidoethyl compounds and pharmaceutical compositions comprising these compounds” (Dr. Karl Thomae GmbH, priority 1986, dated 1991).

Usually EC50 stands for the concentration that produces a half-maximal response.

Data set [1] deals with platelet-rich plasma of healthy test subjects. The experiment in a line: Antithrombotic activity: collagen-induced thrombocyte aggregation (BORN and CROSS method). The data set is classed as cell-based. The settings on record: Homo sapiens, 10 min, plasma incubated for 10 minutes with the substance at 37° C., read-out: EC50 (50% change in the "optical density" in terms of an inhibition of aggregation). The method, then: Thrombocyte aggregation is measured using the BORN and CROSS method (J. Physiol. 170, 397 (1964)) in the platelet-rich plasma of healthy test subjects. To inhibit coagulation, 3.14% sodium citrate is added to the blood in a ratio by volume of 1:10.
The pattern of the decrease in optical density of the platelet suspension is photometrically measured and recorded after the addition of aggregation-inducing substance. The rate of aggregation is determined from the angle of inclination of the density curve. The point on the curve at which there is maximum transmittance is used to calculate the "optical density".
The quantity of collagen is kept as small as possible but sufficient to produce an irreversible reaction curve. The standard commercial collagen produced by Hormonchemie of Munich is used. Before the addition of collagen, the plasma is incubated for 10 minutes with the substance at 37° C.
From the measurements obtained, an EC50 is determined graphically, showing a 50% change in the "optical density" in terms of an inhibition of aggregation.

The next data set concerns mice. The experiment in a line: Acute toxicity after oral administration of a single dose. The class given is in vivo. The note with it: observation period 14 days; for animals died (mortality): single dose 500 mg/kg; for Approximate acute toxicity: single dose, groups of 10. The method, then: The acute toxicity of the substances being tested was determined approximately in groups of 10 mice after oral administration of a single dose (observation period 14 days): […]

Turning to `Cn1c(CCNS(=O)(=O)c2ccccc2)ccc1C(=O)CCC(=O)O` [Substance A, 4-[2-(2-Benzenesulphonylamino-ethyl)-1-methylpyrrol-5-yl]-4-oxybutyric acid], the EC50 in data set [1] came out at 3500 nM. In addition, in the data set on mice, the “animals died (mortality)” value is listed as 0 out of 10 animals and the Approximate acute toxicity is reported as 500 mg/kg.
On to `Cn1c(CCNS(=O)(=O)c2ccc(Cl)cc2)ccc1C(=O)CCC(=O)O` [Substance B, 4-[2-(2-(p-chlorobenzenesulphonylamino)-ethyl)-1-methylpyrrol-5-yl]-4-oxybutyric acid], for which, in data set [1], the EC50 turned out to be 400 nM. In the data set with mice, the “animals died (mortality)” value is 0 out of 10 animals and the Approximate acute toxicity turned out to be 500 mg/kg.
Consider `Cn1c(CCNS(=O)(=O)c2ccccc2)ccc1C1=NNC(=O)CC1` [Substance E, 6-[2-(2-Benzenesulphonylamino-ethyl)-1-methylpyrrol-5-yl]-4,5-dihydro-3(2H)-pyridazinone], for which the EC50 in data set [1] came out at 2900 nM. For the same molecule, in the data set on mice, the “animals died (mortality)” value is 0 out of 10 animals and the Approximate acute toxicity was found to be 500 mg/kg.
Take `Cn1c(CCNS(=O)(=O)c2ccc(F)cc2)ccc1C(=O)CCC(=O)O` [Substance D, 4-[2-(2-(p-Fluorobenzenesulphonylamino)-ethyl)-1-methylpyrrol-5-yl]-4-oxybutyric acid]: the EC50 in data set [1] worked out at 360 nM. Besides, in the data set on mice, the “animals died (mortality)” value is 0 out of 10 animals and the Approximate acute toxicity is 500 mg/kg.
Take `Cn1c(CCNS(=O)(=O)c2cccs2)ccc1C(=O)CCC(=O)O` [Substance C, 4-[2-(2-thiophen-2-yl-sulphonylamino-ethyl)-1-methylpyrrol-5-yl]-4-oxybutyric acid]: in data set [1], the EC50 turned out to be 390 nM. In the data set with mice, the “animals died (mortality)” value is 0 out of 10 animals and the Approximate acute toxicity was 500 mg/kg.
